Source: ChEMBL document CHEMBL1138471, “Synthesis and inotropic evaluation of 1-substituted-N-(4,5-dihydro-1-methyl-[1,2,4]triazolo[4,3-a]quinolin-7-yl)piperidine-4-carboxamides” (2009)
Calls of active or inactive are those of the source. The calls are words filed in the database; no cut-off is given here.

Legend:
[1] = species on record: Oryctolagus cuniculus; experiment: (§1) Positive inotropic activity in New Zealand White rabbit beating left atrium assessed as increase in stroke volume at 100 umol/L after 36 mins; assay type: functional; details: Cardiac atrium
[2] = as §1; assay type: functional, Oryctolagus cuniculus, Cardiac atrium
[3] = species on record: Oryctolagus cuniculus; experiment: Negative inotropic activity in New Zealand White rabbit beating left atrium assessed as decrease in stroke volume at 100 umol/L after incubation for longer period; assay type: functional, tissue-based; details: Cardiac atrium
[4] = species on record: Oryctolagus cuniculus; experiment: Positive inotropic activity in New Zealand White rabbit beating left atrium assessed as increase in stroke volume at 300 umol/L after 36 mins; assay type: functional, tissue-based; details: Cardiac atrium
[5] = species on record: Oryctolagus cuniculus; experiment: Positive inotropic activity in New Zealand White rabbit beating left atrium assessed as increase in stroke volume after 36 mins; assay type: functional, tissue-based; details: Cardiac atrium

Row | Structure (SMILES) | Activity [1] | Activity [2] | other results
1 | COc1cc(CN2CCC(C(=O)Nc3ccc4c(c3)CCc3nnc(C)n3-4)CC2)ccc1OCc1ccccc1Br | inactive |  | 
2 | Cc1nnc2n1-c1ccc(NC(=O)C3CCN(Cc4ccc(Cl)cc4)CC3)cc1CC2 | inactive |  | 
3 | Cc1nnc2n1-c1ccc(NC(=O)C3CCN(Cc4ccc5c(c4)OCO5)CC3)cc1CC2 |  | 2.96% | 
4 | COc1cc(CN2CCC(C(=O)Nc3ccc4c(c3)CCc3nnc(C)n3-4)CC2)ccc1OCc1c(Cl)cccc1Cl | inactive |  | 
5 | Cc1[nH]c(=O)c(C#N)cc1-c1ccncc1 [MILRINONE] |  | 6.36% | 
6 | Cc1nnc2n1-c1ccc(NC(=O)C3CCN(Cc4cccc([N+](=O)[O-])c4)CC3)cc1CC2 |  | 8.14% | 
7 | Cc1nnc2n1-c1ccc(NC(=O)C3CCN(Cc4cccc(Cl)c4)CC3)cc1CC2 |  | 9.97% | 
8 | COc1ccc(CN2CCC(C(=O)Nc3ccc4c(c3)CCc3nnc(C)n3-4)CC2)cc1 | inactive |  | 
9 | Cc1nnc2n1-c1ccc(NC(=O)C3CCN(Cc4ccccc4)CC3)cc1CC2 | inactive |  | 
10 | COc1cc(CN2CCC(C(=O)Nc3ccc4c(c3)CCc3nnc(C)n3-4)CC2)ccc1OCc1cccc([N+](=O)[O-])c1 | inactive |  | 
11 | Cc1nnc2n1-c1ccc(NC(=O)C3CCN(Cc4ccc(Cl)cc4Cl)CC3)cc1CC2 |  | 7.83% | Activity [3]: Active
12 | Cc1ccc(CN2CCC(C(=O)Nc3ccc4c(c3)CCc3nnc(C)n3-4)CC2)cc1 | inactive |  | 
13 | COc1ccc(CN2CCC(C(=O)Nc3ccc4c(c3)CCc3nnc(C)n3-4)CC2)cc1OC |  | 1.87% | 
14 | COc1cc(CN2CCC(C(=O)Nc3ccc4c(c3)CCc3nnc(C)n3-4)CC2)ccc1OCc1ccc(Cl)cc1Cl |  | 2.78% | 
15 | COc1cc(CN2CCC(C(=O)Nc3ccc4c(c3)CCc3nnc(C)n3-4)CC2)ccc1OCc1ccccc1[N+](=O)[O-] | inactive |  | 
16 | COc1cc(CN2CCC(C(=O)Nc3ccc4c(c3)CCc3nnc(C)n3-4)CC2)ccc1OCc1cccc(Cl)c1 |  | 5.56% | Activity [3]: Active

Row | Structure (SMILES) | Activity [1] | Activity [2] | other results
17 | COc1cc(CN2CCC(C(=O)Nc3ccc4c(c3)CCc3nnc(C)n3-4)CC2)ccc1OCc1cccc(F)c1 |  | 0.18% | 
18 | COc1ccc(COc2ccc(CN3CCC(C(=O)Nc4ccc5c(c4)CCc4nnc(C)n4-5)CC3)cc2OC)cc1OC | inactive |  | 
19 | Cc1nnc2n1-c1ccc(NC(=O)C3CCN(Cc4ccccc4Br)CC3)cc1CC2 |  | 1.67% | 
20 | COc1cc(CN2CCC(C(=O)Nc3ccc4c(c3)CCc3nnc(C)n3-4)CC2)ccc1OCc1ccccc1Cl | inactive |  | 
21 | Cc1nnc2n1-c1ccc(NC(=O)C3CCN(Cc4c(Cl)cccc4Cl)CC3)cc1CC2 | inactive |  | 
22 | Cc1nnc2n1-c1ccc(NC(=O)C3CCN(Cc4ccccc4[N+](=O)[O-])CC3)cc1CC2 | inactive |  | 
23 | Cc1nnc2n1-c1ccc(NC(=O)C3CCN(Cc4ccc(F)cc4)CC3)cc1CC2 | inactive |  | 
24 | COc1ccc(COc2ccc(CN3CCC(C(=O)Nc4ccc5c(c4)CCc4nnc(C)n4-5)CC3)cc2OC)cc1 |  | 6.08% | Activity [3]: Active
25 | Cc1nnc2n1-c1ccc(NC(=O)C3CCN(Cc4ccccc4Cl)CC3)cc1CC2 |  | 0.4% | Activity [3]: Active
26 | COc1cc(CN2CCC(C(=O)Nc3ccc4c(c3)CCc3nnc(C)n3-4)CC2)ccc1OCc1ccc(F)cc1 | inactive |  | 
27 | COc1cc(CN2CCC(C(=O)Nc3ccc4c(c3)CCc3nnc(C)n3-4)CC2)ccc1OCc1ccc(Cl)cc1 |  | 5.13% | Activity [3]: Active
28 | COc1cc(CN2CCC(C(=O)Nc3ccc4c(c3)CCc3nnc(C)n3-4)CC2)ccc1OCc1ccc(C)cc1 | inactive |  | 
29 | Cc1nnc2n1-c1ccc(NC(=O)C3CCN(Cc4cccc(F)c4)CC3)cc1CC2 |  | 1.56% | 
30 | COc1cc(CN2CCC(C(=O)Nc3ccc4c(c3)CCc3nnc(C)n3-4)CC2)ccc1OCc1ccccc1 |  | 5.19% | 
31 | Cc1nnc2n1-c1ccc(NC(=O)C3CCN(Cc4ccccc4F)CC3)cc1CC2 |  | 11.92% | Activity [4]: inactive; Activity [5]: Dose-dependent effect
32 | COc1cc(CN2CCC(C(=O)Nc3ccc4c(c3)CCc3nnc(C)n3-4)CC2)ccc1OCc1ccccc1F |  | 7.41% | Activity [4]: inactive; Activity [5]: Dose-dependent effect
